Results from patent US11793881B2, “Polyethylene glycol conjugate medicament, preparation method therefor and use thereof” (CHONGQING UPGRA BIOTECHNOLOGY CO., LTD., priority 2019, dated 2023).

Test system: human breast cancer BT474 cells
Method: Test sample diluent: a proper amount of PEG300 and absolute alcohol was taken, and sodium chloride injection was added to make that the content of PEG300 and absolute alcohol was 20% (v/v).
Test samples: 41-32, 41-40 and 39-55 were respectively taken in a proper volume, and a proper amount of each of the test sample diluent was added, to respectively prepare solutions with the concentrations of 8.3 mg/mL, 4.6 mg/mL and 5.5 mg/mL.
An estrogen sustained-release tablet (17 beta-ESTRADIOL, product No.: SE-121, Innovative Research of America) was embedded under the skin at the neck back of NPG mice before cell inoculation. A BT474 cell suspension with the concentration of 7.5×10^7/mL and a Matrigel Basement membrane Matrix (BD Co.) were mixed according to the volume ratio of 1:1 to obtain a cell suspension with the concentration of 3.75×10^7/mL. 0.2 mL of the cell suspension was inoculated into the right mammary fat pad of the mice. The tumor growth was observed after inoculation, and 36 tumorigenic animals with the tumor volume of 66.83-324.35 mm^3 were finally screened and used for the test.
The negative control, SB7, 41-32, 41-40 and 39-55 were intravenously injected; LPT was intragastrically administered.

[1] = end of experiment (D29), doses as in E38

What does the source list for CS(=O)(=O)CCNCc1ccc(-c2ccc3ncnc(Nc4ccc(OCc5cccc(F)c5)c(Cl)c4)c3c2)o1 [LPT, Lapatinib]?
animals died during the experiment (6 animals per group, LPT 20 mg/kg i.g. (D19), SB7+LPT 5+5.6 mg/kg (D15, D25)): 1; average tumor weight (after euthanasia (D29), doses as in E38): 1.226 ± 0.370 g; inhibition effect on tumor growth (conclusion) (doses as in E38): certain inhibition effects; average tumor volume (end of experiment (D29), LPT 20 mg/kg i.g. and 41-32 83 mg/kg i.v. every 3 days, SB7+LPT 5+5.6 mg/kg, 41-40 46 mg/kg i.v., 39-55 55 mg/kg i.v. one time/week, 4 weeks): 1313.80±241.46 mm^3; average RTV (relative tumor volume) [1]: 8.13±2.92; relative tumor proliferation rate T/C % [1]: 54.27%; tumor weight inhibition rate IRTW % (from tumor weights after euthanasia (D29), b1725, doses as in E38): 32.15%
